Experimental data reported in patent US10562936B2, “Ligands for integrin αvβ6, synthesis and uses thereof” (Technische Universitat Munchen, priority 2015, dated 2020).
Like-named read-outs stand apart in the source and are kept apart here. Square brackets hold non-standard residues; d marks the D form. Side chains are listed from the residue outwards. Peptide text beside a SMILES is read from it. Cy5.5 = Cyanine-5.5; Ahx = NCCCCCC(=O)O; βAla = NCCC(=O)O

What was measured:
[1] = system: human oral squamous cell carcinoma (OSCC) cell line HN (high integrin αvβ6); assay: Cell binding / fluorescence bioimaging of Cy5.5 conjugate on HN cells; format: cell-based
Source text: The human oral squamous cell carcinoma (OSCC) cell line HN were purchased from the German Collection of Microorganisms and Cell Cultures, Braunschweig, Germany (DSMZ no. ACC 417). HN cells derived from a cervical lymph node metastasis of a highly aggressive and invasive OSCC of the soft palate.^[9] As control cells, we used the human ovarian cancer cell line OVMZ6 with low integrin αvβ6 and high integrin αvβ3 expression.^[10] All cells were cultivated in Dulbecco's Modified Eagle's Medium (DMEM) (Sigma-Aldrich, St. Louis, Mo., USA), supplemented with 10% (v/v) fetal calf serum (FCS) (Gibco, LifeTechnologies™, Carlsbad, Calif., USA).
HN and OVMZ6 cells were cultivated for 24 h on fibronectin-coated microchamber slides at a density of 25×10^3/well, thereafter fixed in 2% (w/v) PFA for 15 min at r.t. and washed in PBS. The Cy5.5-conjugated compound 18-Cy5.5, dissolved in PBS, 5% (v/v) dimethyl sulfoxide (DMSO), was applied at a final concentration of […] for 1 h at r.t., followed by 3 washes in PBS. […] As control peptide served the non-binding cycl(R^betaADfK) labelled via lysine side-chain NH2 group with Cy5.5 fluorescent dye. After the incubation period, cells were washed 6 times in PBS and slides mounted. Fluorescence signal intensity was detected by the microscope Zeiss LSM 700 (Zeiss) as described above.

αvβ5 = target: T1, αvβ5 (Homo sapiens, UniProt P06756+P18084); assay: Solid-phase integrin binding assay, αvβ5 (coated Vitronectin)
T1 construct: using coated extracellular matrix proteins and soluble integrins
Experimental: (§1) The activity and selectivity of integrin ligands were determined by a solid-phase binding assay according to the previously reported protocols using coated extracellular matrix proteins and soluble integrins: Fibronectin (Fn) for α5β1, latent activating protein (LAP) for αvβ6 and αvβ8, Vitronectin (Vn) for αvβ3 and αvβ5, Fibrinogen (Fbg) for aIIbβ3.

αvβ6 = αvβ6 (Homo sapiens, UniProt P06756+P18564); assay: Solid-phase integrin binding assay, αvβ6 (coated LAP, soluble integrin); parameters: using coated extracellular matrix proteins and soluble integrins
Experimental: as §1

αIIbβ3 = target: T2, αIIbβ3 (Homo sapiens, UniProt P05106+P08514); assay: Solid-phase integrin binding assay, αIIbβ3 (coated Fibrinogen)
T2 construct: using coated extracellular matrix proteins and soluble integrins
T2 sequence (P08514 32-1039): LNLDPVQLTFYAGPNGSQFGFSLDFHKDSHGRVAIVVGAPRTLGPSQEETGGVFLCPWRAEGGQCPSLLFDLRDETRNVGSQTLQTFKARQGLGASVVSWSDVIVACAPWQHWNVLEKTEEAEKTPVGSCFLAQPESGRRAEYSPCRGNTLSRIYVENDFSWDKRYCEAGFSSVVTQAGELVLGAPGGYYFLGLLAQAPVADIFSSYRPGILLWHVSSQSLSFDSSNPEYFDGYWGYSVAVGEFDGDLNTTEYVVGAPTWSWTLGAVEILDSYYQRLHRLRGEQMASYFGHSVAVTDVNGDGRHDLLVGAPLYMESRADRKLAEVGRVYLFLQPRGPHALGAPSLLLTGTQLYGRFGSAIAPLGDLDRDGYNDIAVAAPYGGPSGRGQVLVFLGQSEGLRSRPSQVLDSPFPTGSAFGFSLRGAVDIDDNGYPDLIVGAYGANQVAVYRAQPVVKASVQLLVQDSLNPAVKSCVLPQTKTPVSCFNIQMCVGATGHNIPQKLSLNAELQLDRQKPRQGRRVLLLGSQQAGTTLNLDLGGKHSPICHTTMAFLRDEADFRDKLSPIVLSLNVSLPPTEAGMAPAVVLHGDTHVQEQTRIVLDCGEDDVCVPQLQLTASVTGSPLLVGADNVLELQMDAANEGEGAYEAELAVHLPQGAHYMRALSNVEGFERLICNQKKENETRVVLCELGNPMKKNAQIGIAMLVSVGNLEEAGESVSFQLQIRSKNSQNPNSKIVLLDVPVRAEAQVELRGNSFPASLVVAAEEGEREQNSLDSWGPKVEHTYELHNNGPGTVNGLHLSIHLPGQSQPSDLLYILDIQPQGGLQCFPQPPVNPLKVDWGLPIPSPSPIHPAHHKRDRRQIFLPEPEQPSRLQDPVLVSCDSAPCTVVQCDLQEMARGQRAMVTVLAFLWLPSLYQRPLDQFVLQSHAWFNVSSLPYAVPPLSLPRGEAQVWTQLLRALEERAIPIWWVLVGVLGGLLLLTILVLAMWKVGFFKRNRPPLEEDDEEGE
T2 sequence (P05106 27-788): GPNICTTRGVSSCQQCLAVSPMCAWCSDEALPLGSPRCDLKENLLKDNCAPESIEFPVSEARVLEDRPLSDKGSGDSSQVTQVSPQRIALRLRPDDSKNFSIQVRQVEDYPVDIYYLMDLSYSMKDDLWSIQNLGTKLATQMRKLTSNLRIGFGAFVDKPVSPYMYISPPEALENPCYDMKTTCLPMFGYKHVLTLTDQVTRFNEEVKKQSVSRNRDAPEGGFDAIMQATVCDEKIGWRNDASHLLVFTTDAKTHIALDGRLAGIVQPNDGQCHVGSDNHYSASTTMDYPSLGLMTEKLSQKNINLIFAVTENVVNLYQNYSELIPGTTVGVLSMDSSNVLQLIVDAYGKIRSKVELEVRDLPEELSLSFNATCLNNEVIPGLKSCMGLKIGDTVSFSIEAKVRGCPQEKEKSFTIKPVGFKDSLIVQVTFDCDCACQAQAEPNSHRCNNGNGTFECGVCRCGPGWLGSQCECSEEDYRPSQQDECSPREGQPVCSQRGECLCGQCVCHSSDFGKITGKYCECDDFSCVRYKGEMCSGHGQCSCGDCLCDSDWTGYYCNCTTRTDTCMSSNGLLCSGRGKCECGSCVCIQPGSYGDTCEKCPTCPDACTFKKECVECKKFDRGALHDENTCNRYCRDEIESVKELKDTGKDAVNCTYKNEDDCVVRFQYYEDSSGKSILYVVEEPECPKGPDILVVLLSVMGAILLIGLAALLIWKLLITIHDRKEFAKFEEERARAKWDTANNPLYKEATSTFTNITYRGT
Experimental: as §1

αvβ3 = target: T3, αvβ3 (Homo sapiens, UniProt P05106+P06756); assay: Solid-phase integrin binding assay, αvβ3 (coated Vitronectin)
T3 construct: using coated extracellular matrix proteins and soluble integrins
T3 sequence (P06756 31-992 limits assumed): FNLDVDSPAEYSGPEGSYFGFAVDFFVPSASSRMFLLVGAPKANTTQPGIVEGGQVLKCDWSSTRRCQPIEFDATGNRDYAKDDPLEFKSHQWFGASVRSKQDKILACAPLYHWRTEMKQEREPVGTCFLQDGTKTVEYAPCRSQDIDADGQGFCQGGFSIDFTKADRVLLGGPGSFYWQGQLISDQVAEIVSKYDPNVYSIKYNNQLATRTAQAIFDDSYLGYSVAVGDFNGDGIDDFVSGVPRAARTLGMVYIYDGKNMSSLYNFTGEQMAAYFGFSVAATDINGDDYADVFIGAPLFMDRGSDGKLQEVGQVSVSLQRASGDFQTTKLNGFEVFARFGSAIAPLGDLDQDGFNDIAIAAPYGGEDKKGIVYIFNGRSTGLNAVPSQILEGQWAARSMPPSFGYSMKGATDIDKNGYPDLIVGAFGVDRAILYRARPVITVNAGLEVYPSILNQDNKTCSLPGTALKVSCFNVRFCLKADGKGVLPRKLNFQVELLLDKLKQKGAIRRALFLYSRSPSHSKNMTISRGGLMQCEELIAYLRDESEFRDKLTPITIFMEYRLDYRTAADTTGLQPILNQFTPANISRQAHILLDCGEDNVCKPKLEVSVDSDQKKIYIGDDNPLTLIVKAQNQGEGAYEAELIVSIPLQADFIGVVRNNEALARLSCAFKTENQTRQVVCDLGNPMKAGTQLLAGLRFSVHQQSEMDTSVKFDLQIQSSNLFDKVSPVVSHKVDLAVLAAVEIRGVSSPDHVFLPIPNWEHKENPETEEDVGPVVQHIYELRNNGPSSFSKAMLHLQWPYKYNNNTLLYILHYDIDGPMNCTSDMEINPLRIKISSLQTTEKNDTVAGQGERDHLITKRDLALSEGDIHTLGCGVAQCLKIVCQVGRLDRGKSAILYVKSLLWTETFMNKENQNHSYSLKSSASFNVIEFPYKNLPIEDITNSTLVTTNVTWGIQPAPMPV
T3 sequence (P05106 27-718 limits assumed): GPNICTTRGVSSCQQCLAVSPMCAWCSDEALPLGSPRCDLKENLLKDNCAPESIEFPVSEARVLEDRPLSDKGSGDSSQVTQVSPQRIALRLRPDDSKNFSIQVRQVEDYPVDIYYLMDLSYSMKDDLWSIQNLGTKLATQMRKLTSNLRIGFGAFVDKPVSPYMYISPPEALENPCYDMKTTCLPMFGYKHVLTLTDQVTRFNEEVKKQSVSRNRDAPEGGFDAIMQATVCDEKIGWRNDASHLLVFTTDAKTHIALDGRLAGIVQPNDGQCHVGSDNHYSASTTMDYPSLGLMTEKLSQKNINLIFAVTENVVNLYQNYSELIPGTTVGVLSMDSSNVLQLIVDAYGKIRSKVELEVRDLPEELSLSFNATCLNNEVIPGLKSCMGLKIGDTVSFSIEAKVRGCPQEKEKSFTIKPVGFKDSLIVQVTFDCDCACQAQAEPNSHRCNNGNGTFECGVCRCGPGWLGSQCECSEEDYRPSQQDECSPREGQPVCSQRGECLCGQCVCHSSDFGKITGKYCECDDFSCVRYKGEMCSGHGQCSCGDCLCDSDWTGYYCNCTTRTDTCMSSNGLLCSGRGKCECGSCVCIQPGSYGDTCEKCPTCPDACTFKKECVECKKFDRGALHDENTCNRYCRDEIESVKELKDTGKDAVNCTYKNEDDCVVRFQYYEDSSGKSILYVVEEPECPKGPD
Experimental: as §1

[2] = target: integrin α5β1 (soluble integrin) (UniProt P08648); assay: solid-phase binding assay, internal standard; coated fibronectin, soluble α5β1
Sequence of integrin α5β1 (soluble integrin) (P08648 42-995, chain 1 of 2): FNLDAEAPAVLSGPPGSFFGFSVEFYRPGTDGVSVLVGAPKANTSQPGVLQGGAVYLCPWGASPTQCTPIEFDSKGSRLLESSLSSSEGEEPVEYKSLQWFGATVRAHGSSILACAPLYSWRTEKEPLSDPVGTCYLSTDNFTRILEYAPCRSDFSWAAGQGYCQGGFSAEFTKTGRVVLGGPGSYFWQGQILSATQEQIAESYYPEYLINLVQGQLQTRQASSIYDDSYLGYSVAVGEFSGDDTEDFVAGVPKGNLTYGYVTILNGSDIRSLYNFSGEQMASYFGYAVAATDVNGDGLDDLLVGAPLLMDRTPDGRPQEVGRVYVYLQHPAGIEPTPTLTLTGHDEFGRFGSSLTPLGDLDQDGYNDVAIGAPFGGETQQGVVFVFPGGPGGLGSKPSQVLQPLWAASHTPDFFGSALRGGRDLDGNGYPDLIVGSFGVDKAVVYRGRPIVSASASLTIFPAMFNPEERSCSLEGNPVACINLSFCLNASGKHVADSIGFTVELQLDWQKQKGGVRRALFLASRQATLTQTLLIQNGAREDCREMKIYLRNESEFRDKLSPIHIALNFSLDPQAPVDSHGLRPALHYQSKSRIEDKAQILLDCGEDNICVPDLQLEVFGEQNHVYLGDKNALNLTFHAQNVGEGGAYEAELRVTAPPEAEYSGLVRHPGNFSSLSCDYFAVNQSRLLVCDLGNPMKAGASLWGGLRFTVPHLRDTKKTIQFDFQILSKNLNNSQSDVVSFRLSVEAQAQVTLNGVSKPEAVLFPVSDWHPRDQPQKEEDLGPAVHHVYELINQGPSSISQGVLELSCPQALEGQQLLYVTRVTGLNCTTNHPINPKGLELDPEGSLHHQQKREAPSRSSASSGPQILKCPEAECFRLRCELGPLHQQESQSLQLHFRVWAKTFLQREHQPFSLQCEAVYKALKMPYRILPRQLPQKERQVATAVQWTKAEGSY
Sequence of integrin α5β1 (soluble integrin) (P05556 21-728, chain 2 of 2, further chain): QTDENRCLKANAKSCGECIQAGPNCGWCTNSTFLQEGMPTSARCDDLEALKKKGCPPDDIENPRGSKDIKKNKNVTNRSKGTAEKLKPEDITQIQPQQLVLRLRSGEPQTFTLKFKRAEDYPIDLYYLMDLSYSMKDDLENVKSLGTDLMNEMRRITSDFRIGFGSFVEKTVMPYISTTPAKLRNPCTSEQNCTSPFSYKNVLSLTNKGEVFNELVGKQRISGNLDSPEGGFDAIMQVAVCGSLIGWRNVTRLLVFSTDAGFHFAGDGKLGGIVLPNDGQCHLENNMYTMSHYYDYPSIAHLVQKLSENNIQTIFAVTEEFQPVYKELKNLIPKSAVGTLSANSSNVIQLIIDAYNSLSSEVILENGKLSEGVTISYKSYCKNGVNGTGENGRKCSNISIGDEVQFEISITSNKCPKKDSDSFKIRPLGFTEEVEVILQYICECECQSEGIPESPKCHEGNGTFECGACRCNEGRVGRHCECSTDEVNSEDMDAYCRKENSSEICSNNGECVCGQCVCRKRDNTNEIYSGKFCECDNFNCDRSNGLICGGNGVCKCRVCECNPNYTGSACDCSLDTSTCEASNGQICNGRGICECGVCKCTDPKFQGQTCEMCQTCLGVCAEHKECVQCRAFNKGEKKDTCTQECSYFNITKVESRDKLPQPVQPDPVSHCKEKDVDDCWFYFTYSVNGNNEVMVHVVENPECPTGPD

[3] = solid-phase binding assay, Vitronectin coated, read-out: αvβ5, IC50
[4] = solid-phase binding assay, Fibrinogen coated, read-out: αIIbβ3, IC50
[5] = solid-phase binding assay, Vitronectin coated, read-out: αvβ3, IC50

Molecule | IC50 (αvβ5; [3]) [nM] | IC50 (αvβ6) [nM] | IC50 (αIIbβ3; [4]) [nM] | IC50 (αvβ3; [5]) [nM] | further results
CC(C)C[C@@H]1NC(=O)[C@H](CC(=O)O)NC(=O)CNC(=O)[C@H](CCCNC(=N)N)NC(=O)[C@H](Cc2ccccc2)NC(=O)[C@H](CCCCN)N(C)C(=O)[C@H]2CCCN2C(=O)[C@H](Cc2ccccc2)NC(=O)[C@H](C)NC1=O [Compound 18, F R G D L A F p (NMe)K] | – | – | – | – | binding competition: fluorescence signal intensity of 18-Cy5.5 after pre-incubation ([1]; 10-fold molar excess of unlabeled analogue for 1 h at r.t. prior to 18-Cy5.5): strong reduction in fluorescence signal intensity
CC(C)C[C@@H]1NC(=O)[C@H](CC(=O)O)NC(=O)CNC(=O)[C@H](CCCNC(=N)N)NC(=O)[C@H](Cc2ccccc2)NC(=O)[C@@H]2CCCN2C(=O)[C@H]2CCCN2C(=O)[C@H](CC(C)C)NC(=O)[C@H](C)NC1=O [Compound 12, F R G D L A L p P] (cyclo(FRGDLAL[dP]P)) | > 1000 | 1.25 | > 1000 | > 1000 | –
CC(C)C[C@@H]1NC(=O)[C@H](CC(=O)O)NC(=O)CNC(=O)[C@H](CCCNC(=N)N)NC(=O)[C@H](C)NC(=O)[C@@H]2CCCN2C(=O)[C@H]2CCCN2C(=O)[C@H](CC(C)C)NC(=O)[C@H](C)NC1=O [Compound 4, A R G D L A L p P] (cyclo(ARGDLAL[dP]P)) | > 1000 | 3 | > 1000 | 106 | –
CC(C)C[C@@H]1NC(=O)[C@H](CC(=O)O)NC(=O)CNC(=O)[C@H](CCCNC(=N)N)NC(=O)[C@H](C)NC(=O)[C@@H]2CCCN2C(=O)[C@H]2CCCN2C(=O)[C@H](CC(C)C)NC(=O)[C@H](C)NC(=O)[C@H](C)NC1=O [Compound 1, A R G D L A A L p P] (cyclo(RGDLAAL[dP]PA)) | – | 8.3 | – | – | IC50 (αvβ5): > 1000 nM; IC50 (αIIbβ3): > 1000 nM; IC50 (αvβ3): 76.7 nM
CC(C)C[C@@H]1NC(=O)[C@H](CC(=O)O)NC(=O)CNC(=O)[C@H](CCCNC(=N)N)NC(=O)[C@H](C)NC(=O)[C@@H]2CCCN2C(=O)[C@H]2CCCN2C(=O)[C@H](Cc2ccccc2)NC(=O)[C@H](C)NC1=O [Compound 10, A R G D L A F p P] (cyclo(ARGDLAF[dP]P)) | – | 0.67 | – | 104 | –
cycl(R^betaADfK)-ahx-Cy5.5 (cyclo(R[βAla]D[dF]K([Ahx-Cy5.5]))) [reference compound] | – | – | – | – | fluorescence signal intensity on cells ([1]; fixed HN cells, conjugate 10 M, 1 h at r.t.): did not result in fluorescence signal intensity
CC(C)C[C@@H]1NC(=O)[C@H](CC(=O)O)NC(=O)CNC(=O)[C@H](CCCNC(=N)N)NC(=O)[C@H](C)NC(=O)[C@@H]2CCCN2C(=O)[C@H]2CCCN2C(=O)[C@H](CC(C)C)NC(=O)[C@@H](CC(=O)O)NC1=O [Compound 7, A R G D L d L p P] (cyclo(ARGDL[dD]L[dP]P)) | – | – | – | > 1000 | –
CC(C)C[C@@H]1NC(=O)[C@H](CC(=O)O)NC(=O)CNC(=O)[C@H](CCCNC(=N)N)NC(=O)[C@H](C)NC(=O)[C@@H]2CCCN2C(=O)[C@H]2CCCN2C(=O)[C@H](CCCCN)NC(=O)[C@H](C)NC1=O [Compound 11, A R G D L A K p P] (cyclo(ARGDLAK[dP]P)) | > 1000 | 1.51 | > 1000 | 302 | –
CC(=O)NCCCC[C@H]1C(=O)N[C@@H](Cc2ccccc2)C(=O)N[C@@H](CCCNC(=N)N)C(=O)NCC(=O)N[C@@H](CC(=O)O)C(=O)N[C@@H](CC(C)C)C(=O)N[C@@H](C)C(=O)N[C@@H](Cc2ccccc2)C(=O)N2CCC[C@@H]2C(=O)N1C [Compound 23, F R G D L A F p (NMe)K^[f]] | > 1000 | 0.3 | > 1000 | 640 | –
Cilengitide, c(-RGDf(NMe)V-) (peptide) | – | – | – | – | IC50 [2]: 1 to 8 nM
